The values that follow are results of earlier work, collected in patent US20150209375A1, “POSOLOGY AND ADMINISTRATION OF GLUCOCORTICOID BASED COMPOSITIONS” (DuoCort Pharma AB, priority 2010, published 2015).

The conditions of the data set: Lennernäs et al 2008.

Each structure is given as a SMILES string.

Take `C[C@]12CCC(=O)C=C1CC[C@@H]1[C@@H]2[C@@H](O)C[C@@]2(C)[C@H]1CC[C@]2(O)C(=O)CO` [Hydrocortisone]: the extraction result was “low extraction drug”. Besides, the BCS class entry (Amidon et al 1995) is “BCS class II”.
